Measured values reported in patent US6335398B1, “Super absorbent polymer composition” (priority 1994, dated 2002).

Test: pKCu, stability constant of the Cu2+ chelate by Cu ion electrode method
Assay type: physicochemical
Settings: log stability constant with Cu2+, 25° C., 0.1M triethanolamine-HCl pH 8
Protocol: The pKCu was obtained by the following procedures. A Cu ion electrode method was used (Orion pH/ion analyzer; Cu ion electrode). A 0.1M triethanolamine-HCl (pH 8) buffer solution was used.
First of all, standard copper ion buffer solutions [400, 320, 240, 160 or 80 ppm (reduced to Cu^2+)] were prepared using CuCl2.2H2O, and a calibration curve was prepared using a copper ion electrode.
Then, a sample weighing 0.1 g was dissolved in 100 ml of a buffer solution in a measuring flask. To the sample solution was added dropwise a 0.05M CuCl2.2H2O buffer solution (pH 8) from a burette in 0.6 ml portions, and the potential of the Cu ion electrode was measured. The titration was conducted until the potential exceeded the level corresponding to 400 ppm (reduced to Cu^2+). Blank measurements were also carried out. A free Cu ion concentration was calculated from the potential, and the calculated value was corrected for the change in amount of the liquid of the measurement system due to the titration. Assuming that addition of an equimolar amount of Cu to a sample produces a 1:1 (by mole) complex, pKCu can be obtained from formula 1:
Stability Constant KML=[ML]/([M][L])
[ML]: Concentration of metal/chelating agent complex
[M]: Concentration of free metal ion
[L]: Concentration of free chelating agent

Row | Compound | pKCu (25° C.)
1 | O=P(O)(O)OP(=O)(O)OP(=O)(O)O [Sodium Tripolyphosphate, reference compound] | 6.8
2 | Monooleyl Citrate | 6.4
3 | CC(C)c1ccc(O)c(=O)cc1 [γ-Thujaplicin, γ-thujaplicin] | 7.9
4 | Monooleyl Phosphate | 3.3
5 | CC(C)c1cccc(O)c(=O)c1 [β-Thujaplicin, β-thujaplicin] | 7.9
6 | O=C([O-])CC(O)(CC(=O)[O-])C(=O)[O-].[Na+].[Na+].[Na+] [Trisodium Citrate, reference compound] | 5.2

Same assay, conditions: pH 8

Row | Compound | pKCu (25° C.)
7 | O=C(O)CN(CCN(CC(=O)O)CC(=O)O)CC(=O)O [EDTA, ethylenediaminetetraacetic acid, reference compound] | 18.79

Test: Solubility of copper salt of chelating compound in physiological saline
Settings: stirred 30 minutes

Row | Compound | Solubility of Cu Salt (25° C.)
8 | O=P(O)(O)OP(=O)(O)OP(=O)(O)O [Sodium Tripolyphosphate, reference compound] | 1 wt %
9 | CC(C)c1cccc(O)c(=O)c1 [β-Thujaplicin, β-thujaplicin] | <0.0001 wt %
